Assay results taken from paper PMC8329197, “Compounds targeting OSBPL7 increase ABCA1-dependent cholesterol efflux preserving kidney function in two models of kidney disease” (Nature Communications, 2021).

What was measured:
3A4 = assay: TDI (3A4) time dependent inhibition; assay type: in vitro ADME
PgP = PgP inhibition; assay type: in vitro ADME

`O=C(N[C@@H]1CCCC[C@H]1O)c1cnc(OCC(F)(F)F)c(-c2ccc(Cl)c(Cl)c2)c1` [Cpd G] was tested, and the “TDI (3A4) time dependent inhib” value (3A4) was “Negative” and the PgP inhibition (PgP) was “Negative”.
